Consider 6 molecules from patent US9988348B1, “Synthesis and antimicrobial use of a trithiocarbonate derivative” (KING SAUD UNIVERSITY, priority 2017, dated 2018).

Assay in all cases: disk diffusion assay, inhibition zone
Format in all cases: cell-based

In assay [1] the test system is Salmonella typhimurium ATCC 14028. Particulars: Salmonella enterica, Sa. typhimurium, read-out: Inhibition zone diameter of standard antimicrobial agents; for zone of inhibition at 10 µg/disc: 10 μg/disk. How it is done: (§1) To evaluate antimicrobial activity of the compound 4, synthesized in our laboratory as novel anti-bacterial and anti-fungal agents, the inhibition zone diameter (mm) and the minimal inhibitory concentration were determined according to (Andrews 2001; Hudzicki 2009). The test carried out on several clinical microorganisms included Gram positive bacteria (Staphylococcus aureus ATCC and Streptococcus mutans ATCC 35668), Gram negative bacteria (Escherichia coli ATCC 25922, Salmonella typhimurium ATCC 14028 and Neisseria meningitides ATCC 1302); yeasts (Candid albicans ATCC 60193, Cryptococcus neoformans Wild strain and Candida parapsilosus ATCC 22019) and molds (Aspergillus fumigatus AUMC 8794, Penicillum chrysogenum AUMC 9476 and Fusarium sp.)
(§2) The clinical microorganisms were cultivated at least three times on suitable culture medium and incubating conditions before susceptibility test. The concentration of microbial inoculation suspensions in sterile sodium chloride solution (0.89%) were adjusted to 0.65 at 620 nm by spectrophotometer. […]
(§3) After that, the disks were dried at 25° C. under sterile conditions by safety biological cabinet. A Mueller-Hinton agar (MHA) (Scharlau Microbiogy, Spain) and a potato dextrose agar (PDA) (Scharlau, Spain) were used to perform antibacterial and antifungal test respectively. The media were prepared according to manufacturer's guidelines. To prepare one liter of MHA and one liter of PDA, 21 grams of MHA and 39 grams of PDA were dissolved in one liter of sterile distilled water, followed by sterilization at 121° C. for 15 minutes by an autoclave (HL-321, Taiwan). The sterilized media were poured in sterile plastic Petri dishes at 50° C. The plates were allowed to let the medium solidify at room temperature. 0.1 ml of microbial inoculation suspensions were spread on dried surface of medium and were kept at 25° C. for 5-10 minutes. The compound 4 and standard antimicrobial drugs discs (Table 1) were dispensed on the surface of inoculated media. The tested bacteria and fungi were incubated at 37±1° C. for 19-22 hours and at 25±1 for 48-72 hours respectively. After the incubation, the diameter of inhibition zone (millimeter) resulting from the biological activity of compound were recorded.

Assay [2] relates to Escherichia coli ATCC 25922. Conditions: Escherichia coli, ATCC25922, E. coli, read-out: Inhibition zone diameter of standard antimicrobial agents; for zone of inhibition at 10 µg/disc: 10 μg/disk. As to the method: as §1, §2, §3
Assay [3] deals with Staphylococcus aureus ATCC. Conditions: Staphylococcus aureus, S. aureus, read-out: Inhibition zone diameter of standard antimicrobial agents; for zone of inhibition at 10 µg/disc: 10 μg/disk. How it is done:
as §1, §2, §3

The test system of assay [4] is Streptococcus mutans ATCC 35668. Conditions: Streptococcus mutans, ATCC35668, S. mutans, read-out: Inhibition zone diameter of standard antimicrobial agents; for zone of inhibition at 10 µg/disc: 10 μg/disk. As to the method:
as §1, §2, §3

In assay [5] the test system is Neisseria meningitides ATCC 1302. Conditions: Neisseria, ATCC1302, N. meningitides, read-out: Inhibition zone diameter of standard antimicrobial agents; for zone of inhibition at 10 µg/disc: 10 μg/disk.
Assay [6] relates to Penicillum chrysogenum AUMC 9476. Conditions: read-out: Inhibition zone diameter of standard antimicrobial agents; for zone of inhibition at 10 µg/disc: P. chrysoginum, 10 μg/disk. As to the method: as §1, §2, §3
For assay [7], the system named is Candida parapsilosus ATCC 22019. Conditions: for susceptibility of the strain to the standard drug, in words / zone of inhibition at 10 µg/disc: C. parasilosus; for zone of inhibition at 10 µg/disc: ATCC22019, 10 μg/disk, read-out: Inhibition zone diameter of standard antimicrobial agents. How it is done: as §1, §2, §3
Assay [8] relates to Candid albicans ATCC 60193. Particulars: Candida albicans, ATCC60193, C. albicans, read-out: Inhibition zone diameter of standard antimicrobial agents; for zone of inhibition at 10 µg/disc: 10 μg/disk. How it is done: as §1, §2, §3
Assay [9] has as its system Cryptococcus neoformans Wild strain. Particulars: for zone of inhibition at 10 µg/disc: C. neoformasn, 10 μg/disk. As to the method:
as §1, §2, §3

Assay [10] has as its system Aspergillus fumigatus AUMC 8794. Conditions: Aspergillus fumigatus, AUMC8794, A. fumigatus, read-out: Inhibition zone diameter of standard antimicrobial agents; for zone of inhibition at 10 µg/disc: 10 μg/disk. As to the method:
as §1, §2, §3

Assay [11] concerns Fusarium sp. Particulars: read-out: Inhibition zone diameter of standard antimicrobial agents; for zone of inhibition at 10 µg/disc: Fusarium sp., 10 μg/disk. As to the method: as §1, §2, §3
The mark [12] stands for this setting: Cryptococcus neoformans, read-out: Inhibition zone diameter of standard antimicrobial agents.

As a reminder, the zone of inhibition is the extent of the growth-free halo in a diffusion test. `O=C(N[C@H](CO)[C@H](O)c1ccc([N+](=O)[O-])cc1)C(Cl)Cl` [Chloramphenicol]: the zone of inhibition at 30 µg/disc in [1] (30 μg/disk) stood at 30 mm; in assay [2] (30 μg/disk) it was 40 mm; in [3] (30 μg/disk), 30 mm; in assay [4] (30 μg/disk), 20 mm; in assay [5] (30 μg/disk), 34 mm.
On to `Clc1ccccc1C(c1ccccc1)(c1ccccc1)n1ccnc1` [Canesten], for which the zone of inhibition at 10 µg/disc worked out at 30 mm in [6]; 0 mm in [7] (Candida); 26 mm in assay [8]; 25 mm in [9] (setting [12]); 23 mm in assay [10]; 15 mm in [11]. The “susceptibility of the strain to the standard drug, in words” value (“susceptibility of the strain” below) in [7] was “resistant”.
As for `C[C@@H]1C[C@@H]([C@H](O)CC2CC(=O)NC(=O)C2)C(=O)[C@@H](C)C1` [Cycloheximide], the zone of inhibition at 30 µg/disc stood at 23 mm in assay [6]; 0 mm in assay [7] (Candida, ATCC22019, read-out: Inhibition zone diameter of standard antimicrobial agents); 0 mm in assay [8] (30 μg/disk); 32 mm in assay [9] (setting [12]); 22 mm in [10] (30 μg/disk); 30 mm in assay [11] (Fusarium). In assay [7], the “susceptibility of the strain” value was “resistant”.
On to `NC[C@H]1O[C@H](O[C@H]2[C@H](O)[C@@H](O[C@H]3O[C@H](CO)[C@@H](O)[C@H](N)[C@H]3O)[C@H](N)C[C@@H]2N)[C@H](N)C[C@@H]1O` [Tobramycin], for which the zone of inhibition at 10 µg/disc in assay [1] worked out at 14 mm; in assay [2], 20 mm; in assay [3], 14 mm; in assay [4], 35 mm; in assay [5], 21 mm.
Consider `CC[C@H](C)C[C@H](C)CCCCCCCCC(=O)N[C@H]1C[C@@H](O)[C@@H](NCCN)NC(=O)[C@@H]2[C@@H](O)CCN2C(=O)[C@H]([C@H](O)CCN)NC(=O)[C@H]([C@H](O)[C@@H](O)c2ccc(O)cc2)NC(=O)[C@@H]2C[C@@H](O)CN2C(=O)[C@H]([C@@H](C)O)NC1=O` [Caspofungin], for which the zone of inhibition at 10 µg/disc was 0 mm in [6]; 0 mm in [7] (Candida); 20 mm in assay [8]; 0 mm in assay [9] (setting [12]); 20 mm in assay [10]; 0 mm in assay [11]. The “susceptibility of the strain” value in [7] is listed as “resistant”; in assay [9] (Cr. neoformans strain used in this study), “resistance”.
Regarding `CC(=O)O[C@H]1C[C@@]2(C)[C@@H](C[C@@H](O)[C@H]3[C@@]4(C)CC[C@@H](O)[C@@H](C)[C@@H]4CC[C@@]32C)/C1=C(\CCC=C(C)C)C(=O)O` [Fusidic acid], the zone of inhibition at 10 µg/disc stood at 0 mm in [1]; 0 mm in assay [2]; 23 mm in [3]; 10 mm in assay [4]; 20 mm in [5].
